Residues, ends and D or L forms follow the SMILES beside them. *: point of attachment. Cbz = O=C(OCc1ccccc1)*
Legend:
Format in all cases: cell-based, human
wild-type TetR-EGFP = biological target: T1, wild-type TetR-EGFP (Escherichia coli, UniProt P04483); test: Flow cytometer fluorescence of HEp-2 cells expressing wild-type TetR-EGFP; settings: 100 μg/ml MG132, 12 hours
T1 construct: prepare a DNA fragment encoding TetR with no termination codon; expressed in transfected cells; host or cells: human cell line HEp-2, vector pEB6CAG
Source text: (§1) All of or any two mutations in combination from three types of mutations, which substitute aspartic acid at the 95th position with asparagine, leucine at the 101st position with serine and glycine at the 102nd position with aspartic acid, were introduced into the tetracycline repressor (TetR), which is an Escherichia coli protein that binds to the antibiotic tetracycline (Tet). The procedure was as follows:
Next, cDNAs encoding TetR-EGFP in which wild-type TetR gene and mutation-introduced TetR gene, respectively, are fused with green fluorescent protein (EGFP) were created. The procedure was as follows.
(§2) An oligo-DNA was synthesized, having a base sequence in which the termination codon has been substituted so as to encode another amino acid instead of the termination codon in the TetR gene, and downstream thereof, a sequence that is recognized and cut by a restriction enzyme; this was used to carry out a PCR reaction to prepare a DNA fragment encoding TetR with no termination codon, and this was substituted with the corresponding site on the DNA encoding the wild-type gene. Then, the DNA was cut by a restriction enzyme and ligated with the upstream side of a DNA fragment encoding EGFP in such a way that the translation open reading frames for protein synthesis match (FIG. 1A). […]

[1] = tested on: pOSTet15-eTetREGFP and pOSTet15-hTetREGFP; test: EGFP expression induction in HEp-2, dual control of transcription and degradation
Source text: A cDNA was integrated into the constitutive gene expression vector “pEB6CAG” or the vector “pOSTet15” enabling transcription-regulated expression through doxycycline, which the present inventors developed by applying the methods in Japanese National-phase PCT Laid-Open Patent Publication No. 2003-515314 (the entirety of which is incorporated herein by reference). The cDNA to be expressed integrates a simple fluorescent protein EGFP, or eTetREGFP or hTetREGFP, which degradation control is enabled by doxycycline. […]
Using a commercially available lipofection reagent, this DNA was introduced into the human cell line HEp-2, the cell line was cultured for four days in the presence of 1.5 mg/ml G418, and only cells with the DNA introduced were selected. These cells were subjected to a flow cytometer and the intensity of fluorescence by EGFP was measured cell by cell to determine the average fluorescence intensity thereof.

pOSTet15-TetRhCre = test: Cre recombination reporter (Venus to DsRed1) in HEp-2, dual control; set-up: cells displaying red fluorescence only: dose or concentration left out as unconfirmed
Source text: As vectors to control the expression of the […] Cre protein, three types of vectors were constructed for: control by protein degradation only, control by transcription only and dual control. […] Three types of vectors were constructed, “pEB6CAG-TetRhCre”, which enables control by degradation alone, and created by turning the hCre cDNA into TetRhCre which enables degradation control by doxycycline, and which was then integrated into the constitutive gene expression vector “pEB6CAG” described above; “pOSTet15-hCre”, which enables control by transcription alone and was created by integrating hCre cDNA into “pOSTet15”: “pOSTet15-TetRhCre”, which enables dual control and created by integrating TetRhCre into “pOSTet15”. In addition to these, as a monitoring vector for confirming the DNA recombination effect by the Cre protein, a recombination reporter vector in which the yellow fluorescent protein Venus was flanked by loxP sequences and the red fluorescent protein DsRed1 was placed downstream thereof, “pEB6CAG-Venus-lox-R1-SRZ” (FIG. 10), was also constructed. […] The expression effect of Cre can be detected simply from this change in fluorescence wavelength (FIG. 10).
Using a commercially available lipofection reagent, this DNA was introduced into the human cell line HEp-2, the cell line was cultured for four days in the presence of 1.5 mg/ml G418 and 0.1 mg/ml zeocin, and only cells with the two species of DNA introduced were selected. Fluorescences at two wavelengths, yellow and red, were measured with a flow cytometer.
Next, comparison on the capabilities was performed, between when Cre protein expression regulation is carried out by protein degradation control alone and transcription control alone, and the dual control system of the present invention. […]
Next, analyses were performed on the influence of the concentration of doxycycline exerted on recombination efficiency. Two species, the vector for Cre dual control and the recombination reporter vector described above, were introduced into a cell, and after selection over […] efficiency.

mutant TetR-EGFP = test: Flow cytometer fluorescence of HEp-2 cells expressing mutant TetR-EGFP; settings: various concentrations
Source text: as §1
An oligonucleotide encoding an amino acid sequence containing the amino acid substitution to be introduced was synthesized, and this was used to prepare a DNA fragment containing a mutation by PCR reaction. […]
as §2

pEB6CAG-TetRhCre = test: Cre recombination reporter in HEp-2, control by protein degradation alone; settings: 1.0 μg/ml doxycycline
Source text: (§3) As vectors to control the expression of the lambda phage Cre protein, three types of vectors were constructed for: control by protein degradation only, control by transcription only and dual control. […] The expression effect of Cre can be detected simply from this change in fluorescence wavelength (FIG. 10).

pOSTet15-hCre = test: Cre recombination reporter in HEp-2, control by transcription alone; settings: 1.0 μg/ml doxycycline
Source text: as §3

T1 sequence (P04483 whole entry, the tested form may be a part): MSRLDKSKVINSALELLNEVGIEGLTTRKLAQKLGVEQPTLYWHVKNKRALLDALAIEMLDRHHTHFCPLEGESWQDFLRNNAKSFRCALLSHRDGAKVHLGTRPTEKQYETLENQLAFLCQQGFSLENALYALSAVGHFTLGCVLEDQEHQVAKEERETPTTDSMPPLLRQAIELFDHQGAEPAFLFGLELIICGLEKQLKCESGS

Structure (SMILES) | change in intensity of fluorescence (wild-type TetR-EGFP) | induction ratio of fluorescence, doxycycline added vs not added [1] [times] | cells displaying red fluorescence only (pOSTet15-TetRhCre) [%] | decrease in cell count due to cytotoxicity (pOSTet15-TetRhCre; 1.0 μg/ml doxycycline, treated for three days) | cells changed to red fluorescence (pOSTet15-TetRhCre; 1.0 μg/ml doxycycline, treatment of only one day) [%] | cells in which red fluorescence was detected (red only plus both yellow and red) (pOSTet15-TetRhCre; 1 mg/ml doxycycline) [%] | concentration needed to ensure that recombination occurs (pOSTet15-TetRhCre; four concentration steps from 0.001 μg/ml to 1.0 μg/ml) [µg/mL] | concentration at which enhancement of fluorescence started to be observed (mutant TetR-EGFP) [µg/mL] | concentration at which the maximum intensity of fluorescence was reached (mutant TetR-EGFP) [µg/mL] | cytotoxicity when doxycycline was added (pEB6CAG-TetRhCre) | cytotoxicity when doxycycline was added (pOSTet15-hCre)
CC(C)C[C@@H](C=O)NC(=O)[C@H](CC(C)C)NC(=O)[C@H](CC(C)C)NC(=O)OCc1ccccc1 [MG132] (Cbz-Leu-Leu-Leu-aldehyde) | no major change |  |  |  |  |  |  |  |  |  | 
C[C@H]1c2cccc(O)c2C(=O)C2=C(O)[C@]3(O)C(=O)C(C(N)=O)=C(O)[C@@H](N(C)C)[C@@H]3[C@@H](O)[C@@H]21 [doxycycline] |  | ≥ 400 | 60 | almost no decrease in cell count | ≥ 70 | ≥ 70 | 1.0 | ≥ 0.05 | 1.5 | killing cells | cytotoxicity was observed
